In the RepoRT retention time repository (doi:10.1021/acs.analchem.2c02893):

Test: RP, Thermo Scientific Acclaim RSLC 120 C18, 100 × 2.1 mm, 2.2 µm, 30 °C, 0.2 mL/min, estimated dead time 1.1 min; A: 90% water + 10% methanol + 0.01% formic acid + 5 mM ammonium formate, pH 3.61; B: methanol + 0.01% formic acid + 5 mM ammonium formate, pH 3.61; gradient (min/%B) 0/1 1/1 2/39 13/99.9 15/99.9 15.1/1 20.1/1
Settings: stereoisomer not certain

CCC(C)(C)C(=O)OC1CC(C)C=C2C=CC(C)C(CCC3CC(O)CC(=O)O3)C21 (centres undefined) [Simvastatin]
LC retention time: 12.6 min

CC1(C)CON(Cc2ccccc2Cl)C1=O [Clomazone  (Command)]
LC retention time: 8.89 min

COP(=O)(OC)OC(=CCl)c1cc(Cl)c(Cl)cc1Cl [Tetrachlorvinphos (Stirofos)]
LC retention time: 10.6 min

CC1C(=O)OC2CC[N+]3([O-])CC=C(COC(=O)C(C)(O)C1(C)O)C23 (centres undefined) [Monocrotaline-N-oxide]
LC retention time: 3.19 min

Cc1ccc(C(=CCN2CCCC2)c2cccc(C=CC(=O)O)n2)cc1 [Acrivastine]
LC retention time: 6.66 min

CCOC(=O)C(C)OC(=O)c1cc(Oc2ccc(C(F)(F)F)cc2Cl)ccc1[N+](=O)[O-] (centres undefined) [Lactofen]
LC retention time: 12.2 min

CC(=O)C1(O)CCC2C3C=C(Cl)C4=CC(=O)C5CC5C4(C)C3CCC21C (centres undefined) [Cyproterone]
LC retention time: 10.1 min

CCc1ccc(C(=O)c2cn(CCCCCF)c3ccccc23)c2ccccc12 [EAM-2201]
LC retention time: 12.2 min

O=C1C2CC=CCC2C(=O)N1SC(Cl)(Cl)Cl (centres undefined) [Captan]
LC retention time: 8.77 min

Cc1ccc(N=Nc2c(O)ccc3ccccc23)c(C)c1 [Sudan II]
LC retention time: 14.9 min

N#Cc1nn(-c2c(Cl)cc(C(F)(F)F)cc2Cl)c(N)c1S(=O)(=O)C(F)(F)F [Fipronil-sulfone]
LC retention time: 11 min

CCOP(=S)(OCC)Oc1cc(Cl)c(Br)cc1Cl [Bromophos-ethyl]
LC retention time: 13.5 min

CC(C)CCOc1ccc(NC(=S)Nc2ccc(OCCC(C)C)cc2)cc1 [Tiocarlide]
LC retention time: 13 min

O=c1c2cc(F)ccc2nc(-n2cncn2)n1-c1ccc(Cl)cc1Cl [Fluquinconazole]
LC retention time: 10.1 min

O=C1OCC(O)=C1Cc1ccccc1 [Benzyltetronic acid (2-)]
LC retention time: 5.06 min

CCOC(=O)C1=CC(OC(CC)CC)C(NC(C)=O)C(N)C1 (centres undefined) [Oseltamivir]
LC retention time: 6.76 min

CCCCCCCCCCCCCCCCCC[N+](C)(C)CCCCCCCCCCCCCCCCCC [Dimethyldioctadecylammonium]
LC retention time: 15 min

CC(Cc1ccc(O)cc1)NCC(O)c1cc(O)cc(O)c1 (centres undefined) [Fenoterol]
LC retention time: 3.61 min

O=C(Oc1cccc2cccnc12)c1nn(CCCCCF)c2ccccc12 [NPB-22-5F]
LC retention time: 10.3 min

N=c1nc(N2CCCCC2)cc(N)n1O [Minoxidil]
LC retention time: 4.88 min

O=C(c1cccc2ccccc12)c1cn(CCCCCF)c2ccccc12 [AM-2201]
LC retention time: 11.2 min

CCc1cccc(C)c1N(C(=O)CS(=O)(=O)O)C(C)COC (centres undefined) [Metolachlor-ESA]
LC retention time: 7.34 min

CN(C)CCCN1c2ccccc2Sc2ccc(Cl)cc21 [Chlorpromazine]
LC retention time: 8.89 min

CC1(C)OC2CC3C4CC(F)C5=CC(=O)C=CC5(C)C4(F)C(O)CC3(C)C2(C(=O)CO)O1 (centres undefined) [Fluocinolone acetonide]
LC retention time: 8.73 min

Cc1cc2n[nH]nc2cc1C [Benzotriazole-5 6-di-Me]
LC retention time: 6.76 min

CCOc1cc(Oc2ccc(C(F)(F)F)cc2Cl)ccc1[N+](=O)[O-] [Oxyfluorfen]
LC retention time: 12.1 min

CN(C(=O)CO)c1c(I)c(C(=O)NCC(O)CO)c(I)c(C(=O)NCC(O)CO)c1I (centres undefined) [Iomeprol]
LC retention time: 2.91 min

CC(C)=CC1C(C(=O)OCN2C(=O)C3=C(CCCC3)C2=O)C1(C)C (centres undefined) [Tetramethrin]
LC retention time: 12.2 min

CN1C2CC(OC(=O)C(CO)c3ccccc3)CC1C1OC12 (centres undefined) [Scopolamine]
LC retention time: 3.83 min

CCCC(=O)OC1(C(=O)CCl)C(C)CC2C3CCC4=CC(=O)C=CC4(C)C3(F)C(=O)CC21C (centres undefined) [Clobetasone butyrate]
LC retention time: 11.3 min

CCc1cc(OC)c(CC(C)N)cc1OC (centres undefined) [DOET]
LC retention time: 6.88 min

OCc1cc(C(O)CNCCCCCCOCCCCc2ccccc2)ccc1O (centres undefined) [Salmeterol]
LC retention time: 8.83 min

CCOC(=O)C=C1SC(N2CCCCC2)C(=O)N1CC (centres undefined) [Piprozolin]
LC retention time: 9.85 min

CC1(C(=O)Nc2ccc(O)c(Cl)c2Cl)CCCCC1 [Fenhexamide]
LC retention time: 10.1 min

OC(c1cc(C(F)(F)F)nc2c(C(F)(F)F)cccc12)C1CCCCN1 (centres undefined) [Mefloquine]
LC retention time: 8.59 min

CCOC(=O)CCN(Cc1ccccc1)SN(C)C(=O)ON=C(C)SC [Alanycarb]
LC retention time: 10.8 min

O=C(NCCN1CCOCC1)c1ccc(Cl)cc1 [Moclobemide]
LC retention time: 4.98 min

COC(=O)C1=C(C#N)NC(C)=C(C(=O)OC(C)C)C1c1cccc([N+](=O)[O-])c1 (centres undefined) [Nilvadipine]
LC retention time: 10.3 min

CN1C(=O)CN=C(C2=CCCCC2)c2cc(Cl)ccc21 [Tetrazepam]
LC retention time: 10.5 min

Cn1c(=O)c2c(ncn2CC(O)CO)n(C)c1=O (centres undefined) [Diprophylline]
LC retention time: 3.76 min

CCCc1nn(C)c2c(=S)nc(-c3cc(S(=O)(=O)N4CCN(CCO)CC4)ccc3OCC)[nH]c12 [Sildenafil-Hydroxythiohomo]
LC retention time: 10.5 min

COC(=O)Nc1nc2ccc(C(=O)c3ccc(F)cc3)cc2[nH]1 [Flubendazole]
LC retention time: 8.65 min

CNC1(c2ccccc2Cl)CCCCC1=O (centres undefined) [Ketamine]
LC retention time: 4.61 min

COC(=O)NC(C(=O)NC(Cc1ccccc1)C(O)CN(Cc1ccc(-c2ccccn2)cc1)NC(=O)C(NC(=O)OC)C(C)(C)C)C(C)(C)C (centres undefined) [Atazanavir]
LC retention time: 10.9 min

CCCC(C(=O)c1ccc2c(c1)OCO2)N1CCCC1 (centres undefined) [MDPV]
LC retention time: 5.18 min

COC(=O)C(c1ccccc1)C1CCCCN1 (centres undefined) [Methylphenidate]
LC retention time: 4.96 min

O=S(=O)(Oc1ccc(Cl)cc1)c1ccc(Cl)cc1 [Chlorfenson.Ovex.chlorofenizon.ephirsulfonate.ovatron]
LC retention time: 11.1 min

CC1C(c2ccccc2)OCCN1C (centres undefined) [Phendimetrazine]
LC retention time: 4.06 min

Cc1cccc(C)c1OCC(C)N (centres undefined) [Mexiletine]
LC retention time: 5.59 min

CCNc1nc(Cl)nc(N(CC)CC)n1 [Trietazine]
LC retention time: 10.2 min

CN(CC=CC#CC(C)(C)C)Cc1cccc2ccccc12 [Terbinafine]
LC retention time: 11 min

COC(=O)C(C)Oc1ccc(Cl)cc1Cl (centres undefined) [Dichlorprop-methyl]
LC retention time: 10.5 min

CN(C)CCCC1(c2ccc(F)cc2)OC(=O)c2cc(C#N)ccc21 (centres undefined) [Citalopram 3-oxo]
LC retention time: 6.6 min

COc1cc2c(cc1OC)CC(=O)N(CCCN(C)CC1Cc3cc(OC)c(OC)cc31)CC2 (centres undefined) [Ivabradine]
LC retention time: 5.02 min

CCn1cc(C(=O)O)c(=O)c2cc3c(cc21)OCO3 [Oxolinic acid]
LC retention time: 6.03 min

CCOP(=O)(OCC)OC(=CCl)c1ccc(Cl)cc1Cl (mixture of isomers) [Chlorfenvinphos (E/Z) Peak 1 (Main)]
LC retention time: 11 min

COC(=O)Nc1ccc(Cl)c(Cl)c1 [SWEP.MCC]
LC retention time: 9.68 min

COP(=S)(NC(C)C)Oc1ccccc1C(=O)OC(C)C (centres undefined) [Isofenphos-methyl]
LC retention time: 11.7 min

CCC(=C(c1ccccc1)c1ccc(OCCN(C)C)cc1)c1ccccc1 [Tamoxifen]
LC retention time: 11 min

CC(C)(C)N1CCC(c2ccccc2)(c2ccccc2)CC1 [Budipine]
LC retention time: 6.72 min

CNC(=O)Nc1ccc(Cl)c(Cl)c1 [3-4-(dichlorophenyl)-3-methyl urea]
LC retention time: 8.51 min

CCN1CCCC1CNC(=O)c1cc(S(=O)(=O)CC)c(N)cc1OC (centres undefined) [Amisulpride]
LC retention time: 3.88 min

CCC(=O)OC1(C(=O)CCl)C(C)CC2C3CCC4=CC(=O)C=CC4(C)C3(F)C(O)CC21C (centres undefined) [Clobetasol propionate]
LC retention time: 10.6 min

O=C(Oc1ccccc1)c1ccccc1C(=O)Oc1ccccc1 [Phthalate-Diphenyl]
LC retention time: 11.2 min

CCC(Cc1ccc2c(c1)OCO2)NC (centres undefined) [MBDB]
LC retention time: 4.66 min

C#CC[N+](C)([O-])C(C)Cc1ccccc1 (centres undefined) [Deprenyl-N-oxide]
LC retention time: 5.33 min

CC(O)(CS(=O)(=O)c1ccc(F)cc1)C(=O)Nc1ccc(C#N)c(C(F)(F)F)c1 (centres undefined) [Bicalutamide]
LC retention time: 8.71 min

Nc1nc2c(ncn2CCC(CO)CO)c(=O)[nH]1 [Penciclovir]
LC retention time: 2.98 min

COc1ccc(C(=O)c2c(C)n(CCN3CCOCC3)c3ccccc23)cc1 [WIN-48-098]
LC retention time: 9.55 min

O=C(NC(=O)c1c(F)cccc1F)Nc1cc(Cl)c(OC(F)(F)C(F)C(F)(F)F)c(Cl)c1F (centres undefined) [Noviflumuron]
LC retention time: 12.7 min

Nc1nc(N)nc(Cl)n1 [Atrazine-desethyl-desisopropyl]
LC retention time: 3.03 min

CCCCc1c(C)nc(NCC)[nH]c1=O [Ethirimol]
LC retention time: 8 min

CCOc1ccc(S(=O)(=O)O)c2cccnc12 [Actinoquinol]
LC retention time: 3.56 min

Clc1nc(Cl)nc(Nc2ccccc2Cl)n1 [Anilazine (Dyrene)]
LC retention time: 9.74 min

COCC(=O)N(c1c(C)cccc1C)N1CCOC1=O [Oxadixyl]
LC retention time: 6.29 min

CCSC(=O)N(CC(C)C)CC(C)C [Butylate]
LC retention time: 12 min

O=C(O)CCCO [GHB Fragm 87]
LC retention time: 1.95 min

C[N+]1(CCC(O)(c2ccccc2)c2cccs2)CCOCC1 (centres undefined) [Tiemonium]
LC retention time: 5.06 min

CCCNCC(O)COc1ccccc1C(=O)CCc1ccccc1 (centres undefined) [Propafenone]
LC retention time: 7.81 min

COc1cc(OC)nc(NC(=O)NS(=O)(=O)c2ncccc2C(F)(F)F)n1 [Flazasulfuron]
LC retention time: 8.56 min

CCOC1OC(C(=O)O)C(O)C(O)C1O (centres undefined) [EtG (Na)]
LC retention time: 1.52 min

CN(C)CCC(c1ccccc1)c1ccccn1 (centres undefined) [Pheniramine]
LC retention time: 4.98 min

COc1ccnc(CS(=O)c2nc3ccc(OC(F)F)cc3[nH]2)c1OC (centres undefined) [Pantoprazole]
LC retention time: 7.46 min

CCCOP(=S)(OCCC)OP(=S)(OCCC)OCCC [Aspon]
LC retention time: 12.9 min
